In publication PMC9667936, “Functional mapping of the 14-3-3 hub protein as a guide to design 14-3-3 molecular glues” (Chemical Science, 2022):
Where a SMILES comes first, the peptide text is derived from it. [ ]: non-standard residue; d: D form. The star is where a group is joined. ξ: configuration not given here. FITC = O=C1OC2(c3ccc(O)cc3Oc3cc(O)ccc32)c2ccc(NC(=S)*)cc21; Phe(4-NO2) = N[C@@H](Cc1ccc([N+](=O)[O-])cc1)C(=O)O; ξAla(4-thiazolyl) = NC(Cc1cscn1)C(=O)O; pS = N[C@@H](COP(=O)(O)O)C(=O)O; β3hS = N[C@@H](CO)CC(=O)O; Nva = CCC[C@H](N)C(=O)O; AEA = NCCOCC(=O)O; βAla = NCCC(=O)O

Target: T1, 14-3-3γ (Homo sapiens, UniProt P61981)
T1 construct: made in house; host or cells: E. coli NiCo21 (DE3)
T1 sequence (P61981 1-247): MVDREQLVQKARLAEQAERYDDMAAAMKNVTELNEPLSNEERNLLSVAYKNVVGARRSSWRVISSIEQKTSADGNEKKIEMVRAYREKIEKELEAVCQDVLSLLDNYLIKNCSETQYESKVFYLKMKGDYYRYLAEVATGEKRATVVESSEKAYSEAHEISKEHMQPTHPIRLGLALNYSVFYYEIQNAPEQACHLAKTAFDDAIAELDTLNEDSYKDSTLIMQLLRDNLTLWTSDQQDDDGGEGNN
Test: Fluorescence anisotropy (FA) binary binding study: 14-3-3 titrated to fluorescein-labelled peptide
Conditions: for individual ΔΔG of removed residue / ΔΔG (to previous): FA; for individual ΔΔG of removed residue: ΔG relative to the previously truncated peptide; for fold change in binding affinity on truncation: FA KD relative to the previous (one amino acid longer) peptide
Protocol: 14-3-3γ protein expression (FP/ITC experiments)
(§1) A pPROEX HTb expression vector encoding the human 14-3-3 protein gamma (14-3-3γ) with an N-terminal his6-tag was transformed by heat shock into NiCo21 (DE3) competent cells. Single colonies were cultured in 50 mL LB medium (100 µg/mL ampicillin). After overnight incubation at 37 °C, cultures were transferred to 2 L TB media (100 µg/mL ampicillin, 1 mM MgCl2) and incubated at 37 °C until an OD600 nm of 0.8-1.2 was reached. Protein expression was then induced with 0.4 mM isopropyl-β-d-thiogalactoside (IPTG), and cultures were incubated overnight at 18 °C. Cells were harvested by centrifugation (8600 rpm, 20 minutes, 4 °C) and resuspended in lysis buffer (50 mM Hepes, pH 8.0, 300 mM NaCl, 12.5 mM imidazole, 5 mM MgCl2, 2 mM βME) containing cOmplete™ EDTA-free Protease Inhibitor Cocktail tablets (1 tablet/100 ml lysate) and benzonase (1 µl/100 ml). After lysis using a C3 Emulsiflex-C3 homogenizer (Avestin), the cell lysate was cleared by centrifugation (20000 rpm, 30 minutes, 4 °C) and purified using Ni2+-affinity chromatography (Ni-NTA superflow cartridges, Qiagen).
Typically two 5 mL columns (flow 5 mL/min) were used for a 2 L culture in which the lysate was loaded on the column washed with 10 CV wash buffer (50 mM Hepes, pH 8.0, 300 mM NaCl, 25 mM imidazole, 2 mM βME) and eluted in several fractions (2-4 CV) of elution buffer (50 mM Hepes, pH 8.0, 300 mM NaCl, 250 mM imidazole, 2 mM βME). Fractions containing the 14-3-3 protein were combined and dialyzed into 25 mM HEPES pH 8.0, 100 mM NaCl, 10 mM MgCl2, 500 µM TCEP. Finally, the protein was concentrated to ∼60 mg/mL, analyzed Q-Tof LC/MS, and aliquots were flash-frozen for storage at […]
as §1, with “sigma truncated after T231 (14-3-3σΔc) and” for “gamma (14-3-3γ)”, “tablet/ 100” for “tablet/100”, “µl/ 100” for “µl/100”, “ml).” for “ml). After lysis using a C3 Emulsiflex-C3 homogenizer (Avestin), the cell lysate was cleared by centrifugation (20000 rpm, 30 minutes, 4 °C) and purified using Ni2+-affinity chromatography (Ni-NTA superflow cartridges, Qiagen).”
After lysis using a C3 Emulsiflex-C3 homogenizer (Avestin), the cell lysate was cleared by centrifugation (20000 rpm, 30 minutes, 4 °C) and purified using Ni2+-affinity chromatography (Ni-NTA superflow cartridges, Qiagen). Typically two 5 mL columns were used for a 2 L culture in which the lysate was loaded on the column washed with 10 CV wash buffer (50 mM Hepes, pH 8.0, 300 mM NaCl, 25 mM imidazole, 2 mM βME) and eluted with several fractions (2-4 CV) of elution buffer (50 mM Hepes, pH 8.0, 300 mM NaCl, 250 mM imidazole, 2 mM βME). Fractions containing the 14-3-3 protein were combined and dialyzed into 25 mM HEPES pH 8.0, 200 mM NaCl, 10 mM MgCl2, 2 mM βME. In addition, 1 mg TEV was added for each 100 mg purified protein to remove the purification tag. The cleaved sample was then again loaded on a 10 mL Ni-NTA column to separate the cleaved product from the expression tag and residual uncleaved protein. The flowthrough was loaded on a Superdex 75 pg 16/60 size exclusion column (GE Life Sciences) using 25 mM HEPES, 100 mM NaCl, 10 mM MgCl2, 500 μM TCEP (adjusted to pH=8.0) as running buffer. Fractions containing the 14-3-3 protein were pooled and concentrated to ∼60 mg/mL, analyzed Q-Tof LC/MS, and aliquots were flash-frozen for storage at −80 […]
The peptides 1 and 2a-d were synthesized on 50 µmol scale on a Rink amide MBHA resin […]

[1] = Table S2, FA KD of peptide divided by KD of previous (one amino acid longer) peptide, mean of n = 3
[2] = Table S2, KD / KD of previous (one amino acid longer) peptide, replicate 1
[3] = Table S2, KD / KD of previous (one amino acid longer) peptide, replicate 2
[4] = Table S2, KD / KD of previous (one amino acid longer) peptide, replicate 3
[5] = Table S2, calculated from FA KD, mean of n = 3
[6] = Table S2, from FA KD, replicate 1
[7] = Table S2, from FA KD, replicate 2
[8] = Table S2, from FA KD, replicate 3
[9] = Table S2, ΔG minus ΔG of previous peptide, replicate 1
[10] = Table S2, ΔG minus ΔG of previous peptide, replicate 2
[11] = Table S2, ΔG minus ΔG of previous peptide, replicate 3
[12] = Table S2, ΔG of peptide minus ΔG of previous (one amino acid longer) peptide, mean of n = 3
[13] = Table S3, FA KD of peptide divided by KD of previous (one amino acid longer) peptide, mean of n = 3
[14] = Table S3, KD / KD of previous peptide, replicate 1
[15] = Table S3, KD / KD of previous peptide, replicate 2
[16] = Table S3, KD / KD of previous peptide, replicate 3
[17] = Table S3, calculated from FA KD, mean of n = 3
[18] = Table S3, from FA KD, replicate 1
[19] = Table S3, from FA KD, replicate 2
[20] = Table S3, from FA KD, replicate 3
[21] = Table S3, ΔG minus ΔG of previous peptide, replicate 1
[22] = Table S3, ΔG minus ΔG of previous peptide, replicate 2
[23] = Table S3, ΔG minus ΔG of previous peptide, replicate 3
[24] = Table S3, ΔG of peptide minus ΔG of previous (one amino acid longer) peptide, mean of n = 3

Row | Structure (SMILES) | individual ΔΔG of removed residue | Fold change to previous [1] | Fold change to previous [2] | Fold change to previous [3] | Fold change to previous [4] | ΔG [5] | ΔG [6] | ΔG [7] | Fold change to previous [13] | Fold change to previous [14] | Fold change to previous [15] | Fold change to previous [16] | ΔG [17] | ΔG [18] | ΔG [19] | ΔG [20] | ΔΔG (to previous) [21] | ΔΔG (to previous) [22] | ΔΔG (to previous) [23] | ΔΔG (to previous) [24] | other results
1 | CCC[C@H](N)C(=O)N[C@@H](Cc1ccc([N+](=O)[O-])cc1)C(=O)NC(Cc1cscn1)C(=O)N[C@@H](COP(=O)(O)O)C(=O)N[C@@H](Cc1ccc([N+](=O)[O-])cc1)C(=O)N[C@@H](CO)CC(=O)NCCC(=O)N[C@@H](Cc1ccc([N+](=O)[O-])cc1)C(=O)N[C@@H](CCCCN)C(=O)N[C@@H](C)C(=O)N[C@@H](CCCCNC(=S)Nc1ccc2c(c1)C(=O)OC21c2ccc(O)cc2Oc2cc(O)ccc21)C(N)=O (stereo partly drawn) [2a] (H-[Nva][Phe(4-NO2)][ξAla(4-thiazolyl)][pS][Phe(4-NO2)][β3hS][βAla][Phe(4-NO2)]KAK(FITC)-NH2) | only minor energy contributions | 1,98 | 1,72 | 2,56 | 1,66 | -10,13 kcal/mol | -10,29 kcal/mol | -10,00 kcal/mol | – | – | – | – | – | – | – | – | – | – | – | – | ΔG [8]: -10,11 kcal/mol; ΔΔG (to previous) [9]: 0,32 kcal/mol; ΔΔG (to previous) [10]: 0,56 kcal/mol; ΔΔG (to previous) [11]: 0,30 kcal/mol; ΔΔG (to previous) [12]: 0,39 kcal/mol
2 | C[C@H](NC(=O)[C@H](CCCCN)NC(=O)[C@H](Cc1ccc([N+](=O)[O-])cc1)NC(=O)CCNC(=O)C[C@H](CO)NC(=O)[C@H](Cc1ccc([N+](=O)[O-])cc1)NC(=O)[C@H](COP(=O)(O)O)NC(=O)C(Cc1cscn1)NC(=O)[C@@H](N)Cc1ccc([N+](=O)[O-])cc1)C(=O)N[C@@H](CCCCNC(=S)Nc1ccc2c(c1)C(=O)OC21c2ccc(O)cc2Oc2cc(O)ccc21)C(N)=O (stereo partly drawn) [2b] (H-[Phe(4-NO2)][ξAla(4-thiazolyl)][pS][Phe(4-NO2)][β3hS][βAla][Phe(4-NO2)]KAK(FITC)-NH2) | only minor energy contributions | 2,86 | 3,64 | 2,32 | 2,61 | -9,52 kcal/mol | -9,53 kcal/mol | -9,50 kcal/mol | – | – | – | – | – | – | – | – | – | – | – | – | ΔG [8]: -9,54 kcal/mol; ΔΔG (to previous) [9]: 0,76 kcal/mol; ΔΔG (to previous) [10]: 0,50 kcal/mol; ΔΔG (to previous) [11]: 0,57 kcal/mol; ΔΔG (to previous) [12]: 0,61 kcal/mol
3 | CCC[C@H](NC(=O)[C@@H](CCCCN)NC(=O)COCCNC(=S)Nc1ccc2c(c1)C(=O)OC21c2ccc(O)cc2Oc2cc(O)ccc21)C(=O)N[C@@H](Cc1ccc([N+](=O)[O-])cc1)C(=O)NC(Cc1cscn1)C(=O)N[C@@H](COP(=O)(O)O)C(=O)N[C@@H](Cc1ccc([N+](=O)[O-])cc1)C(=O)N[C@@H](CO)CC(=O)NCCC(=O)N[C@@H](Cc1ccc([N+](=O)[O-])cc1)C(N)=O (stereo partly drawn) [2e] ({FITC-AEA}-[dK][Nva][Phe(4-NO2)][ξAla(4-thiazolyl)][pS][Phe(4-NO2)][β3hS][βAla][Phe(4-NO2)]-NH2) | – | – | – | – | – | – | – | – | 5,55 | 5,54 | 7,13 | 3,98 | -9,53 kcal/mol | -9,60 kcal/mol | -9,39 kcal/mol | -9,59 kcal/mol | 1,01 kcal/mol | 1,16 kcal/mol | 0,82 kcal/mol | 1,00 kcal/mol | fold change in binding affinity on truncation: five-fold reduction
4 | CCC[C@H](NC(=O)[C@@H](CCCCN)NC(=O)COCCNC(=S)Nc1ccc2c(c1)C(=O)OC21c2ccc(O)cc2Oc2cc(O)ccc21)C(=O)N[C@@H](Cc1ccc([N+](=O)[O-])cc1)C(=O)NC(Cc1cscn1)C(=O)N[C@@H](COP(=O)(O)O)C(=O)N[C@@H](Cc1ccc([N+](=O)[O-])cc1)C(=O)N[C@@H](CO)CC(=O)NCCC(N)=O (stereo partly drawn) [2f] ({FITC-AEA}-[dK][Nva][Phe(4-NO2)][ξAla(4-thiazolyl)][pS][Phe(4-NO2)][β3hS][βAla]-NH2) | 1.5 kcal/mol | – | – | – | – | – | – | – | 12,39 | 12,69 | 11,53 | 12,93 | -8,04 kcal/mol | -8,10 kcal/mol | -7,95 kcal/mol | -8,07 kcal/mol | 1,50 kcal/mol | 1,45 kcal/mol | 1,52 kcal/mol | 1,49 kcal/mol | fold change in binding affinity on truncation: 12 fold
5 | CCC[C@H](NC(=O)[C@@H](CCCCN)NC(=O)COCCNC(=S)Nc1ccc2c(c1)C(=O)OC21c2ccc(O)cc2Oc2cc(O)ccc21)C(=O)N[C@@H](Cc1ccc([N+](=O)[O-])cc1)C(=O)NC(Cc1cscn1)C(=O)N[C@@H](COP(=O)(O)O)C(=O)N[C@@H](Cc1ccc([N+](=O)[O-])cc1)C(=O)N[C@@H](CO)CC(N)=O (stereo partly drawn) [2g] ({FITC-AEA}-[dK][Nva][Phe(4-NO2)][ξAla(4-thiazolyl)][pS][Phe(4-NO2)][β3hS]-NH2) | 0.4 kcal/mol | – | – | – | – | – | – | – | 1,85 | 1,92 | 1,84 | 1,79 | -7,67 kcal/mol | -7,71 kcal/mol | -7,59 kcal/mol | -7,73 kcal/mol | 0,39 kcal/mol | 0,36 kcal/mol | 0,34 kcal/mol | 0,36 kcal/mol | –
